Where “and” joins values, the source holds several entries; their conditions need not be identical. Equal entries are not always repeated.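 Compound exposure: 48 hours, 5 concentrations, 96-well plates. At the GI50, growth is halved. TGI is the concentration that stops growth completely.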 Where a SMILES comes first, the peptide text is derived from it. [ ]: non-standard residue; d: D form. The star is where a group is joined. ξ: configuration not given here. NMeN = CN[C@@H](CC(N)=O)C(=O)O; NMeV = CN[C@H](C(=O)O)C(C)C; ξNMeV = CNC(C(=O)O)C(C)C; Boc = CC(C)(C)OC(=O)*; ξNMeA = CNC(C)C(=O)O

Among the test systems are 786-0 renal; CCRF-CEM leukemia; HOP-62 NSCLC; IGROV1 ovarian; NCI-H522 lung; OVCAR-5 ovarian; OVCAR-8 ovarian; RXF 393 renal; SK-MEL-2 melanoma; SNB-75 CNS.
Experiment in all cases: NCI tumour cell line growth inhibition, 48 h

As to `COC(=O)C(C)N(C)C(=O)[C@H](CC(N)=O)N(C)C(=O)[C@@H]1CCCN1C(=O)[C@H](C(C)C)N(C)C(=O)C(C(C)C)N(C)C(=O)[C@@H](NC(=O)OC(C)(C)C)C(C)C` (stereo partly drawn) (Boc-V[ξNMeV][NMeV]P[NMeN][ξNMeA]-OMe), the GI50 in the assay with 786-0 renal was 57 µM; in the assay on CCRF-CEM leukemia it was 65.7 µM; in the assay on HOP-62 NSCLC it was > 100 µM; in the assay on IGROV1 ovarian it was > 100 µM; in the assay with OVCAR-5 ovarian, > 100 µM; in the assay on RXF 393 renal, 32.6 µM. Also, the GI50 in the assay with SK-MEL-2 melanoma is > 100 µM. The TGI was > 100 µM in the assay with 786-0 renal; > 100 µM with CCRF-CEM leukemia; > 100 µM in the assay on HOP-62 NSCLC; > 100 µM with IGROV1 ovarian; > 50 µM with NCI-H522 lung; > 100 µM in the assay on OVCAR-5 ovarian. Moreover, the TGI in the assay with OVCAR-8 ovarian was > 100 µM; in the assay on RXF 393 renal, > 50 µM and 96.8 µM; in the assay on SK-MEL-2 melanoma, > 100 µM; in the assay with SNB-75 CNS, > 100 µM.

In the case of `Cc1cc(-c2nnc(N)nc2-c2ccc(F)cc2)cc(Cl)n1`, the GI50 in the assay with 786-0 renal is > 100 µM; in the assay on CCRF-CEM leukemia, 93.1 µM; in the assay on HOP-62 NSCLC it was > 100 µM; in the assay on IGROV1 ovarian, > 100 µM; in the assay on NCI-H522 lung, 55.9 µM; in the assay on OVCAR-5 ovarian it was > 100 µM. The GI50 in the assay with OVCAR-8 ovarian is > 100 µM; in the assay on RXF 393 renal, 87.2 µM; in the assay with SK-MEL-2 melanoma it was > 100 µM; with SNB-75 CNS, 54.3 µM. Also, the TGI with 786-0 renal, with CCRF-CEM leukemia, with HOP-62 NSCLC, in the assay on IGROV1 ovarian, in the assay on NCI-H522 lung and with OVCAR-5 ovarian was > 100 µM in each case. The TGI in the assay with OVCAR-8 ovarian, with RXF 393 renal, in the assay with SK-MEL-2 melanoma and in the assay on SNB-75 CNS was > 100 µM in each case.

In the case of `CCCCCCCCCCC(O)C1CCC(C(O)CCC(O)C2CCC(CCCCCCC[C@H](O)CC3=C[C@@H](C)OC3=O)O2)O1` (stereo partly drawn), the TGI is 53.9 µM in the assay on 786-0 renal; > 100 µM with HOP-62 NSCLC; > 100 µM with IGROV1 ovarian; > 100 µM in the assay on NCI-H522 lung; > 100 µM in the assay with OVCAR-5 ovarian; 34 µM in the assay on OVCAR-8 ovarian. For the same compound, the values for the TGI in the assay on RXF 393 renal, with SK-MEL-2 melanoma and with SNB-75 CNS were 33.9 µM, > 100 µM and 25.4 µM, respectively. The GI50 in the assay on OVCAR-8 ovarian is 7.39 µM; in the assay on SNB-75 CNS, 2.92 µM.

`CCCC(C)C[C@@H](C)CC(C)/C=C(\C)c1oc(=O)c(C)c(O)c1C` (stereo partly drawn) (tested in a mixture with another compound): the TGI in the assay with 786-0 renal worked out at 29.5 µM; with HOP-62 NSCLC, 36.5 µM; in the assay on NCI-H522 lung it was 31.1 µM; in the assay on OVCAR-5 ovarian, 17.5 µM; in the assay on OVCAR-8 ovarian, 39.7 µM; in the assay with RXF 393 renal, 26.6 µM. Besides, the TGI came to 22.8 µM in the assay on SK-MEL-2 melanoma and 28.3 µM in the assay on SNB-75 CNS.

For the compound `COC1OC(C)C(O)CC1OS(=O)(=O)c1ccc(C)cc1` (stereo not drawn), the TGI in the assay on 786-0 renal, in the assay on CCRF-CEM leukemia, with IGROV1 ovarian, with NCI-H522 lung, in the assay with OVCAR-5 ovarian and in the assay with OVCAR-8 ovarian was > 100 µM each time. In addition, the TGI in the assay on RXF 393 renal, with SK-MEL-2 melanoma and with SNB-75 CNS was > 100 µM in each case.

For `O=CN1N=C(c2ccc(Cl)cc2)CC1c1cccc(Nc2ccnc3cc(Cl)ccc23)c1` (stereo not drawn), the GI50 in the assay on 786-0 renal is 2.96 µM; with CCRF-CEM leukemia, 1.42 µM; in the assay with HOP-62 NSCLC, 1.21 µM; in the assay with IGROV1 ovarian it was 1.44 µM; in the assay with NCI-H522 lung, 1.12 µM; with OVCAR-5 ovarian, 9.42 µM. Moreover, the GI50 in the assay on OVCAR-8 ovarian was 1.92 µM; with RXF 393 renal, 1.4 µM; in the assay on SNB-75 CNS it was 1.7 µM. Further, the TGI in the assay with 786-0 renal was 14.5 µM; in the assay on CCRF-CEM leukemia, 23.1 µM; in the assay on HOP-62 NSCLC, 16.1 µM; in the assay with IGROV1 ovarian, > 100 µM; in the assay on NCI-H522 lung, 11.9 µM; in the assay on OVCAR-5 ovarian, > 100 µM. The TGI in the assay on OVCAR-8 ovarian is 29.1 µM; with RXF 393 renal, 5.87 µM; in the assay on SNB-75 CNS it was > 100 µM.

Take `Nc1nc(=S)[nH]c(C(=O)Nc2ccc(Cl)c(Cl)c2)c1-c1ccc(Cl)cc1`: the TGI in the assay with 786-0 renal, in the assay with CCRF-CEM leukemia, in the assay on HOP-62 NSCLC, in the assay with IGROV1 ovarian, with NCI-H522 lung and in the assay with OVCAR-5 ovarian was > 100 µM in each case. Moreover, the TGI in the assay on OVCAR-8 ovarian, with RXF 393 renal and with SNB-75 CNS was > 100 µM each time.

Take `O=C1NC(=S)NC(=O)C1=Cc1cccc2cc3ccccc3cc12`: the TGI in the assay with 786-0 renal came to 3.42 µM; with HOP-62 NSCLC, 4.16 µM; in the assay on IGROV1 ovarian, 3.61 µM; with NCI-H522 lung, 4.36 µM; in the assay with OVCAR-5 ovarian, 5.21 µM; in the assay with OVCAR-8 ovarian it was 3.9 µM. The values for the TGI in the assay on RXF 393 renal, in the assay on SK-MEL-2 melanoma and with SNB-75 CNS were 3.53 µM, 4.1 µM and 3.7 µM, respectively.

With `CCC[CH2][Sn]([CH2]CCC)([O]C(=O)C(N)CSC)[O]C(=O)C(N)CSC` (stereo not drawn), the GI50 in the assay with 786-0 renal was 8.14 µM; with CCRF-CEM leukemia, 1.73 µM; in the assay on IGROV1 ovarian, 17.8 µM; in the assay with NCI-H522 lung, 1.34 µM; with OVCAR-5 ovarian, 15.7 µM; in the assay on OVCAR-8 ovarian it was 12.6 µM. Moreover, the GI50 is 6.83 µM with RXF 393 renal, 2.78 µM in the assay on SK-MEL-2 melanoma and 10 µM with SNB-75 CNS. Besides, the TGI in the assay on 786-0 renal is 21.8 µM; with CCRF-CEM leukemia, 6.43 µM; in the assay on IGROV1 ovarian it was 34.2 µM; in the assay on NCI-H522 lung it was 3.39 µM; in the assay with OVCAR-5 ovarian it was 35.6 µM; in the assay on OVCAR-8 ovarian it was 38.1 µM. Moreover, the TGI was found to be 18.8 µM in the assay with RXF 393 renal, 8.79 µM with SK-MEL-2 melanoma and 31.6 µM with SNB-75 CNS.

Take `COc1ccc2cc3[n+](cc2c1OC)CCc1cc(O)c(O)cc1-3`: the TGI in the assay with 786-0 renal, with CCRF-CEM leukemia, in the assay with HOP-62 NSCLC, in the assay on IGROV1 ovarian, in the assay on NCI-H522 lung and in the assay on OVCAR-5 ovarian was > 100 µM in each case. Moreover, the TGI in the assay on OVCAR-8 ovarian, with RXF 393 renal and in the assay with SNB-75 CNS was > 100 µM each time.

The values above are taken from PubChem BioAssay (NCI).
